Test results reported in publication PMC9367672, “In vitro differences in toddalolactone metabolism in various species and its effect on cytochrome P450 expression” (Pharmaceutical Biology, 2022).

Key:
[1] = Enzyme kinetics of toddalolactone metabolism in rat liver microsomes (oxidative metabolism and glucuronidation); format: in vitro ADME; conditions: rat, liver microsomes, pH 7.4, RLMs, Vmax/Km
Procedure: (§1) The CYP reaction system (200 μL) consisted of 0.1 M potassium phosphate buffer (pH 7.4), an NADPH-generating system (1 mM NADPH, 10 mM G-6-P, 1 unit/mL G-6-PD, 4 mM MgCl2), and liver microsomes or recombinant human microsomes (supersomes). Each of the in vitro enzymatic assays using liver microsomes was linear with respect to incubation time and amount of protein. After a pre-incubation at 37 °C for 3 min, the reactions were initiated by adding NADP^+. After incubating for 60 min, the reactions were quenched by adding 200 μL of ice-cold acetonitrile. Samples were centrifuged at 18,000 g for 15 min at 4 °C and 10 μL of supernatant was analyzed using an HPLC system. NADPH or CYP enzyme sources were not used in the control group to ensure that the metabolic reactions were CYP- and NADPH-dependent. All incubation assays were completed in triplicate. The data are presented as mean ± standard deviation (SD).
(§2) In the UGT reaction system, liver microsomes were incubated in 200 μL of the reaction system containing 4 mM UDPGA, 5 mM MgCl2, 20 µg/mL alamethicin, and 50 mM Tris-HCl buffer (pH 7.4). After pre-incubation at 37 °C for 3 min, UDPGA was added to the mixture to initiate the reactions. The mixtures were incubated at 37 °C for 60 min, followed by the addition of 200 μL of cold methanol to terminate the reactions. After centrifugation at 18,000 g for 15 min, 10 μL of the supernatant was analyzed by HPLC.
(§3) The enzyme kinetics of toddalolactone in oxidative metabolism and glucuronidation were determined by incubating liver microsomes (0.2 mg/mL) or CYPs (15 nM) with different concentrations of toddalolactone (1–200 μM). The kinetic parameters including Km and Vmax were obtained by fitting the experimental data to the Michaelis–Menten equation (Equation (1)), biphasic kinetics equation (Equation (2)), or substrate inhibition equation (Equation (3)) (He et al. [2018]), and the results were graphically represented on Eadie–Hofstee plots. The in vitro intrinsic clearance (CLint) was calculated based on the Vmax/Km ratio. Metabolites were quantified using the standard curve for toddalolactone because of the absence of metabolite standards. All incubations were repeated in three independent experiments. Kinetic constants were expressed with mean ± SD: (1) V=Vmax×[S]/Km+[S] (2) V=Vmax1×[S]/Ks1+[S]+Vmax2×[S]/Ks2+[S] (3) V=Vmax×[S]/Ks+[S]+[S]^2/Ksi where v is the rate of reaction, Vmax is the estimated maximum velocity, [S] is the substrate concentration, and Km is the affinity constant of the substrate; Vmax1 and Vmax2 represent the estimated maximum velocity of the two metabolic phases; Ks1 and Ks2 represent the affinity constants for two metabolic phases; Ks and Ksi are the substrate affinity and inhibition constants, respectively.
(§4) The enzyme kinetics in oxidative metabolism and glucuronidation of toddalolactone were studied, and preliminary experiments were performed to ensure that metabolites were formed in the linear range of both reaction time and microsomal protein concentration. The metabolite with the largest peak area was used to calculate the kinetic parameter values (Km, Vmax and CLint). Based on the results of toddalolactone metabolism in different species, the kinetic parameter values in RLMs, DLMs, MLMs, HLMs, RAMs, MIMs, PLMs, CYP1A1 and CYP3A5 were calculated using P4, P4, P4, P4, P2, P2, P4, P4 and P4 data in oxidative metabolism, respectively. In the glucuronidation reaction, the kinetic parameter values in RLMs, MLMs, HLMs, RAMs and PLMs were calculated using P5, P6, P6, P6 and P5 data, respectively.

[2] = test system: RLMs; test: as above; format: in vitro ADME; conditions: RLMs; for V max: toddalolactone 1–200 μM
Procedure: as §1, §2, §3, §4

[3] = Enzyme kinetics of toddalolactone metabolism in mouse liver microsomes (oxidative metabolism); format: in vitro ADME; conditions: pH 7.4; MOMs (mouse liver microsomes); P450-catalyzed oxidation; P2 formation; Vmax/Km
Procedure: as §1
(§5) The enzyme kinetics of toddalolactone in oxidative metabolism and glucuronidation were determined by incubating liver microsomes (0.2 mg/mL) or CYPs (15 nM) with different concentrations of toddalolactone (1–200 μM). […] The in vitro intrinsic clearance (CLint) was calculated based on the Vmax/Km ratio. Metabolites were quantified using the standard curve for toddalolactone because of the absence of metabolite standards. […]
as §4, with “The metabolite with the largest peak area was used to calculate the kinetic parameter values (Km, Vmax and CLint).” left out

[4] = test system: MIMs; test: as above; format: in vitro ADME; conditions: MOMs (mouse liver microsomes), P450-catalyzed oxidation, P2 formation
Procedure: as §1, §5
as §4, with “The metabolite with the largest peak area was used to calculate the kinetic parameter values (Km, Vmax and CLint).” left out

[5] = Enzyme kinetics of toddalolactone metabolism in dog liver microsomes (oxidative metabolism); format: in vitro ADME, beagle dog; conditions: beagle, dog, liver microsomes, pH 7.4; DLMs; P450-catalyzed oxidation; P4 formation; Vmax/Km
Procedure: as §1, §5
as §4, with “The metabolite with the largest peak area was used to calculate the kinetic parameter values (Km, Vmax and CLint).” left out

[6] = test system: DLMs; test: as above; format: in vitro ADME, beagle dog; conditions: P450-catalyzed oxidation, P4 formation
Procedure: as §1, §5
as §4, with “The metabolite with the largest peak area was used to calculate the kinetic parameter values (Km, Vmax and CLint).” left out

[7] = test system: HLMs; test: Enzyme kinetics of toddalolactone metabolism in human liver microsomes (oxidative metabolism and glucuronidation); format: in vitro ADME; conditions: HLMs; for V max: toddalolactone 1–200 μM
Procedure: as §1, §2, §3, §4

[8] = as above; format: in vitro ADME; conditions: human, liver microsomes, pH 7.4, HLMs, Vmax/Km
Procedure: as §1, §2, §3, §4

[9] = P450-catalyzed oxidation, P4 formation
[10] = glucuronide metabolism, P5 formation
[11] = glucuronide metabolism, P6 formation

SMILES: COc1cc2oc(=O)ccc2c(OC)c1C[C@@H](O)C(C)(C)O [toddalolactone]
- microsomal CLint [1, 9]: 1.31 µL/min/mg
- microsomal CLint [1, 10]: 0.69 µL/min/mg
- K m [2, 9]: 121.13 ± 31.89 µM
- V max [2, 9]: 158.26 ± 20.52 pmol/min/mg protein
- K m [2, 10]: 79.11 ± 22.56 µM
- V max [2, 10]: 55.89 ± 6.61 pmol/min/mg protein
- microsomal CLint [3]: 1.61 µL/min/mg
- K m [4]: 146.32 ± 26.62 µM
- V max ([4]; toddalolactone 1–200 μM): 235.91 ± 22.75 pmol/min/mg protein
- microsomal CLint [5]: 0.19 µL/min/mg
- K m [6]: 148.93 ± 38.37 µM
- V max ([6]; toddalolactone 1–200 μM): 29.76 ± 7.27 pmol/min/mg protein
- K m [7, 9]: 244.63 ± 78.99 µM
- V max [7, 9]: 35.07 ± 7.16 pmol/min/mg protein
- K m [7, 11]: 66.33 ± 20.46 µM
- V max [7, 11]: 50.16 ± 8.75 pmol/min/mg protein
- microsomal CLint [8, 9]: 0.14 µL/min/mg
- microsomal CLint [8, 11]: 0.75 µL/min/mg
